Data reported in ChEMBL document CHEMBL5352469, “Solubility-driven optimization of benzothiopyranone salts leading to a preclinical candidate with improved pharmacokinetic properties and activity against Mycobacterium tuberculosis” (Eur J Med Chem, 2023).
In brackets after ≈: the same amount, converted by molar mass.

How the values were obtained:
[1] = Efflux ratio of apparent permeability across basolateral to apical side over apical to basolateral side in human Caco-2 cells; type: ADME, cell-based
[2] = Aqueous solubility of compound by HPLC-PDA method; type: physicochemical; conditions: buffer
[3] = Apparent permeability across apical to basolateral side in human Caco-2 cells incubated for 21 days; type: ADME, cell-based; conditions: time 21 day
[4] = Apparent permeability across basolateral to apical side in human Caco-2 cells incubated for 21 days; type: ADME, cell-based; conditions: time 21 day
[5] = Chemical stability of the compound under 4500 +/- 500 lx light condition by measuring compound purity incubated for 10 days by HPLC-PDA method relative to initial purity; type: physicochemical; conditions: time 10 day; for Stability: 240 h
[6] = Cmax in Balb/c mouse at 50 mg/kg, po measured upto 24 hrs by LC/MS/MS analysis; type: ADME, organism-based; parameters: time < 24 hrs, dose 50 mg/kg, route po; conditions: in vivo
[7] = Elimination half life in Balb/c mouse at 5 mg/kg, iv measured upto 24 hrs by LC/MS/MS analysis; type: ADME, organism-based; conditions: in vivo, read-out: beta t1/2 (converted)
[8] = Chemical stability of the compound under 92.5% humidity by measuring compound purity incubated for 10 days by HPLC-PDA method relative to initial purity; type: physicochemical; conditions: time 10 day; for Stability: 240 h
[9] = Cmax in Balb/c mouse at 5 mg/kg, iv measured upto 24 hrs by LC/MS/MS analysis; type: ADME, organism-based; parameters: dose 5 mg/kg, time < 24 hrs, route iv; conditions: in vivo
[10] = Chemical stability of the compound under 60 degree C high temperature by measuring compound purity incubated for 10 days by HPLC-PDA method analysis relative to initial purity; type: physicochemical; conditions: time 10 day; for Stability: 240 h
[11] = AUC (0 to t) in Balb/c mouse at 5 mg/kg, iv measured upto 24 hrs by LC/MS/MS analysis; type: ADME, organism-based; parameters: time < 24 hrs, dose 5 mg/kg, route iv; conditions: in vivo; for AUC(0-t) at 24 h: Balb/c
[12] = AUC (0 to t) in Balb/c mouse at 50 mg/kg, po measured upto 24 hrs by LC/MS/MS analysis; type: ADME, organism-based; parameters: dose 50 mg/kg, time < 24 hrs, route po; conditions: in vivo; for AUC(0-t) at 24 h: Balb/c
[13] = Oral bioavailability in Balb/c mouse at 50 mg/kg measured upto 24 hrs by LC/MS/MS analysis; type: ADME, organism-based; conditions: in vivo; for bioavailability: Balb/c
[14] = Elimination half life in Balb/c mouse at 50 mg/kg, po measured upto 24 hrs by LC/MS/MS analysis; type: ADME, organism-based; conditions: in vivo, read-out: beta t1/2 (converted)
[15] = Tmax in Balb/c mouse at 50 mg/kg, po measured upto 24 hrs by LC/MS/MS analysis; type: ADME, organism-based; conditions: in vivo
[16] = AUC (0 to t) in Sprague-Dawley rat at 5 mg/kg, iv measured upto 24 hrs by LC/MS/MS analysis; type: ADME, organism-based; parameters: time < 24 hrs, dose 5 mg/kg, route iv; conditions: in vivo
[17] = Cmax in Sprague-Dawley rat at 50 mg/kg, po measured upto 24 hrs by LC/MS/MS analysis; type: ADME, organism-based; parameters: time < 24 hrs, dose 50 mg/kg, route po; conditions: in vivo
[18] = Lipophilicity, log D of the compound in octanol/water at pH 4.0 incubated for 72 hrs under shaking condition by shake flask based HPLC-PDA method; type: physicochemical
[19] = Clearance in Sprague-Dawley rat at 5 mg/kg, iv measured upto 24 hrs by LC/MS/MS analysis; type: ADME, organism-based; conditions: in vivo
[20] = AUC (0 to infinity) in Sprague-Dawley rat at 50 mg/kg, po measured upto 24 hrs by LC/MS/MS analysis; type: ADME, organism-based; parameters: time < 24 hrs, dose 50 mg/kg, route po; conditions: in vivo
[21] = AUC (0 to infinity) in Sprague-Dawley rat at 5 mg/kg, iv measured upto 24 hrs by LC/MS/MS analysis; type: ADME, organism-based; parameters: time < 24 hrs, dose 5 mg/kg, route iv; conditions: in vivo
[22] = Lipophilicity, log D of the compound in octanol/water at pH 7.6 incubated for 72 hrs under shaking condition by shake flask based HPLC-PDA method; type: physicochemical
[23] = Lipophilicity, log D of the compound in octanol/water at pH 2.0 incubated for 72 hrs under shaking condition by shake flask based HPLC-PDA method; type: physicochemical
[24] = Lipophilicity, log P of the compound in octanol/water incubated for 72 hrs under shaking condition by shake flask based HPLC-PDA method; type: physicochemical
[25] = MRT (0 to infinity) in Sprague-Dawley rat at 5 mg/kg, iv measured upto 24 hrs by LC/MS/MS analysis; type: ADME, organism-based; conditions: in vivo
[26] = AUC (0 to t) in Sprague-Dawley rat at 50 mg/kg, po measured upto 24 hrs by LC/MS/MS analysis; type: ADME, organism-based; parameters: dose 50 mg/kg, time < 24 hrs, route po; conditions: in vivo
[27] = Elimination half life in Sprague-Dawley rat at 50 mg/kg, po measured upto 24 hrs by LC/MS/MS analysis; type: ADME, organism-based; conditions: in vivo, read-out: beta t1/2 (converted)
[28] = Cmax in Sprague-Dawley rat at 5 mg/kg, iv measured upto 24 hrs by LC/MS/MS analysis; type: ADME, organism-based; parameters: time < 24 hrs, dose 5 mg/kg, route iv; conditions: in vivo
[29] = Elimination half life in Sprague-Dawley rat at 5 mg/kg, iv measured upto 24 hrs by LC/MS/MS analysis; type: ADME, organism-based; conditions: in vivo, read-out: beta t1/2 (converted)
[30] = Tmax in Sprague-Dawley rat at 50 mg/kg, po measured upto 24 hrs by LC/MS/MS analysis; type: ADME, organism-based; conditions: in vivo
[31] = Oral bioavailability in Sprague-Dawley rat at 50 mg/kg measured upto 24 hrs by LC/MS/MS analysis; type: ADME, organism-based; conditions: in vivo
[32] = Lipophilicity, log D of the compound in octanol/water at pH 6.8 incubated for 72 hrs under shaking condition by shake flask based HPLC-PDA method; type: physicochemical
[33] = MRT (0 to infinity) in Sprague-Dawley rat at 50 mg/kg, po measured upto 24 hrs by LC/MS/MS analysis; type: ADME, organism-based; conditions: in vivo
[34] = test system: Mycobacterium tuberculosis; experiment: Antibacterial activity against Mycobacterium tuberculosis H37Rv BALB/c mouse model assessed as reduction in CFU in lungs at 12.5 mg/kg via oral gavage for 30 days (reference value: 5.35 +/-0.17); type: functional; conditions: time 30 day
[35] = test system: Mycobacterium tuberculosis; experiment: Antibacterial activity against Mycobacterium tuberculosis H37Rv BALB/c mouse model assessed as reduction in delta CFU in lungs at 12.5 mg/kg via oral gavage for 30 days; type: functional; conditions: time 30 day
[36] = test system: Mycobacterium tuberculosis; experiment: Antibacterial activity against Mycobacterium tuberculosis H37Rv BALB/c mouse model assessed as reduction in CFU in lungs at 25 mg/kg via oral gavage for 30 days (reference value: 5.35 +/-0.17); type: functional; conditions: time 30 day
[37] = test system: Mycobacterium tuberculosis; experiment: Antibacterial activity against Mycobacterium tuberculosis H37Rv by microplate alamar blue assay; type: functional
[38] = test system: Mycobacterium tuberculosis; experiment: Antibacterial activity against Mycobacterium tuberculosis H37Rv BALB/c mouse model assessed as reduction in delta CFU in lungs at 25 mg/kg via oral gavage for 30 days; type: functional; conditions: time 30 day

## O=C(O)CC(O)(CC(=O)O)C(=O)O.O=C(O)CC(O)(CC(=O)O)C(=O)O.O=C(O)CC(O)(CC(=O)O)C(=O)O.O=c1cc(N2CCN(CC3CCCCC3)CC2)sc2c([N+](=O)[O-])cc(C(F)(F)F)cc12.O=c1cc(N2CCN(CC3CCCCC3)CC2)sc2c([N+](=O)[O-])cc(C(F)(F)F)cc12
[1]
  efflux ratio: 0.1
[2]; read-out: solubility
  solubility: 128 µg/mL
[3]
  Papp A→B: 4.08 ×10⁻⁶ cm/s
[4]
  Papp B→A: 0.26 ×10⁻⁶ cm/s

## O=C(O)CC(O)(CC(=O)O)C(=O)O.O=c1cc(N2CCN(CC3CCCCC3)CC2)sc2c([N+](=O)[O-])cc(C(F)(F)F)cc12
[5]
  Stability: 91.3%
[6]
  Cmax: 536 ng/mL
[7]
  half-life: 6.67 h
[8]
  Stability: 99.4%
[9]
  Cmax: 3780 ng/mL
[1]
  efflux ratio: 0.13
[10]
  Stability: 99.6%
[11]
  AUC(0-t) at 24 h: 2360 ng·h/mL
[12]
  AUC(0-t) at 24 h: 4440 ng·h/mL
[13]
  bioavailability: 19.4%
[2]; read-out: solubility
  solubility: 143 µg/mL
[14]
  half-life: 6.19 h
[3]
  Papp A→B: 2.52 ×10⁻⁶ cm/s
[15]
  Tmax: 0.5 h
[4]
  Papp B→A: 0.33 ×10⁻⁶ cm/s

## O=c1nc(N2CCN(CC3CCCCC3)CC2)sc2c([N+](=O)[O-])cc(C(F)(F)F)cc12 [MACOZINONE]
[2]
  solubility: 0.11 µg/mL (≈ 0.241 µM)

## Cl.O=c1cc(N2CCN(CC3CCCCC3)CC2)sc2c([N+](=O)[O-])cc(C(F)(F)F)cc12
[5]
  Stability: 99.8%
[6]
  Cmax: 502 ng/mL
[16]
  AUC(0-t) at 24 h: 1890 ng·h/mL
[7]
  half-life: 7.59 h
[8]
  Stability: 100%
[17]
  Cmax: 163 ng/mL
[9]
  Cmax: 5990 ng/mL
[1]
  efflux ratio: 0.36
[10]
  Stability: 100%
[18]; pH 4, 72 h
  logD: 3.77
[19]
  clearance: 43.6 mL/min/kg
[20]
  AUC(0-inf): 982 ng·h/mL
[21]
  AUC(0-inf): 1940 ng·h/mL
[22]; pH 7.6, 72 h
  logD: > 4.29
[11]; 24 h
  AUCt: 6434 ng·h/mL
[23]; pH 2, 72 h
  logD: 1.3
[12]; 24 h
  AUCt: 2251 ng·h/mL
[24]; 72 h
  logP: 2.56
[25]
  MRT inf: 2.52 h
[26]
  AUC(0-t) at 24 h: 961 ng·h/mL
[13]; po, 50 mg/kg, 24 h
  F: 14.1%
[27]
  half-life: 5.38 h
[2]; read-out: solubility
  solubility: 28.1 µg/mL
[28]
  Cmax: 3490 ng/mL
[14]
  half-life: 6.72 h
[29]
  half-life: 7.92 h
[30]
  Tmax: 1.67 h
[3]
  Papp A→B: 0.39 ×10⁻⁶ cm/s
[15]
  Tmax: 0.42 h
[31]
  bioavailability: 5.07%
[32]; pH 6.8, 72 h
  logD: > 4.27
[33]
  MRT inf: 5.13 h
[4]
  Papp B→A: 0.14 ×10⁻⁶ cm/s

## O=C(O)/C=C\C(=O)O.O=c1cc(N2CCN(CC3CCCCC3)CC2)sc2c([N+](=O)[O-])cc(C(F)(F)F)cc12
[5]; read-out: Stability
  remaining at 240 h: 100%
[6]
  Cmax: 776 ng/mL
[16]
  AUC(0-t) at 24 h: 1710 ng·h/mL
[7]
  half-life: 6.61 h
[8]; read-out: Stability
  remaining at 240 h: 100%
[17]
  Cmax: 282 ng/mL
[9]
  Cmax: 3090 ng/mL
[1]
  efflux ratio: 0.1
[10]; read-out: Stability
  remaining at 240 h: 100%
[18]; pH 4
  logD at 72 h: 3.6
[19]
  clearance: 52.4 mL/min/kg
[20]
  AUC(0-inf): 2180 ng·h/mL
[34]
  Activity: 4.6 log10CFU
[21]
  AUC(0-inf): 1740 ng·h/mL
[22]; pH 7.6
  logD at 72 h: > 4.24
[11]
  AUC(0-t) at 24 h: 2570 ng·h/mL
[23]; pH 2
  logD at 72 h: 1.31
[12]
  AUC(0-t) at 24 h: 7110 ng·h/mL
[24]
  logP at 72 h: 2.6
[35]
  Activity: 0.75 log10CFU
[25]
  MRT inf: 2.46 h
[26]
  AUC(0-t) at 24 h: 2130 ng·h/mL
[13]
  bioavailability: 28%
[27]
  half-life: 4.56 h
[2]; read-out: solubility
  solubility: 114 µg/mL
[28]
  Cmax: 3880 ng/mL
[14]
  half-life: 5.99 h
[29]
  half-life: 6.43 h
[30]
  Tmax: 3.33 h
[3]
  Papp A→B: 3.1 ×10⁻⁶ cm/s
[15]
  Tmax: 1.5 h
[31]
  bioavailability: 12.5%
[36]
  Activity: 2.12 log10CFU
[32]; pH 6.8
  logD at 72 h: > 4.24
[33]
  MRT inf: 5.91 h
[37]
  MIC: < 0.016 µg/mL
[4]
  Papp B→A: 0.25 ×10⁻⁶ cm/s
[38]
  Activity: 3.23 log10CFU
